The values below come from paper PMC8698672, “Selective Anticancer and Antimicrobial Metallodrugs Based on Gold(III) Dithiocarbamate Complexes” (Biomedicines, 2021).

One assay relates to Caco-2/TC7 normal cells. Description: MTT cell viability, normal (differentiated) Caco-2/TC7 cells (15 days after seeding). As to conditions: Caco-2/TC7, 15 days after seeding, 72 h incubation. The class given is cell-based, human. The procedure: This study was conducted in the human enterocyte-like cell line Caco-2/TC7 [44]. This cell line undergoes a process of spontaneous differentiation in culture that leads to the formation of a monolayer of cells, expressing the morphological and functional characteristics of the mature enterocytes. This differentiation process is growth-dependent, where the cells undergo differentiation from “undifferentiated proliferative crypt-type cells” in the exponential phase of growth, to “differentiated enterocyte-type cells” in the stationary phase. The cell culture of Caco-2/TC7 cells (passages 30–50) was performed according to a previously reported method.
Cell survival was measured using the MTT test. The assay depends on the cellular reduction of 3-(4,5-dimethylthiazol-2-yl)-2,5-diphenyltetrazolium bromide (MTT, Sigma-Aldrich, Madrid, Spain) by the mitochondrial dehydrogenase of viable cells to a blue formazan product that can be measured spectrophotometrically, as previously described.
The in vitro cytotoxic effect was evaluated on human colon cancer cell line Caco-2/TC7. This particular cell line presents a huge advantage for toxicity studies because of its spontaneous enterocytic-like differentiation when confluence is reached. Therefore, Caco-2 cells become polarized cells expressing apical and basolateral surfaces with well-established tight junctions. Thus, cells present noncarcinogenic behavior in the confluence and the cytotoxic effect of our complexes can be performed on differentiated cells to evaluate the selectivity toward tumor cells. For the antiproliferative studies, MTT assay was performed after 72 h of exposure to different concentrations of the complexes at two different stages of confluence, five days to evaluate the effect on tumor cells (Figure S7) and 15 days for normal cells (Figure S8).

The target of the next assay is T1, BSA (Bos taurus, UniProt P02769).
T1 construct: purchased Sigma Aldrich
Description: BSA interaction, fluorescence quenching (Stern–Volmer). As to conditions: for bimolecular quenching constant kq: BSA 50 μM in PBS pH 7.4; for Stern–Volmer quenching constant KSV: BSA 50 μM in PBS pH 7.4, excitation 295 nm; for number of binding sites n: modified Stern–Volmer equation; for number of binding sites n, rounded (in brackets): whole number printed in brackets after n. The class given is binding, bovine. The procedure: BSA was commercially available from Sigma Aldrich. A 2 mM solution of BSA was prepared in PBS (10 mM, pH = 7.4). The final concentration of the stock BSA solution was checked by UV–Vis spectra (ε279 nm = 43,824 M^−1 cm^−1). The value obtained was the real concentration of the stock solution. A 6 mM stock solution of the gold complexes in DMSO was prepared and different aliquots of the gold complex were added to a 50 μM solution of BSA in PBS and placed in a quartz cuvette of 1 cm optical path. The fluorescence spectra were recorded on a Horiba Jobin Yvon (Bensheim, Germany) fluorolog FL-3-11 spectrometer. The samples were excited at 295 nm and the emission spectra were recorded in a range from 310 to 450 nm with emission slits set to 2 nm. The fluorescence was measured for 4 min after every addition of the gold complex aliquots. The fluorescence intensities of the PBS and the gold complexes were irrelevant under the described conditions.
The data were analyzed using the Stern−Volmer equation F0/F = 1 + KSV (gold complex) = 1 + Kqτ0 (gold complex) (τ0 = lifetime of BSA in absence of the quencher) to obtain the Stern−Volmer quenching constant (KSV) and the quenching rate constant (Kq). The binding constant (Kb) was quantified using the modified Stern−Volmer equation: log {(F0 − F)/F} = log Kb + n log (gold complex) (n = number of binding sites).
This intrinsic fluorescence is extremely sensitive to the environment, so any binding or interaction of molecules induces changes in the BSA emission spectrum. Consequently, interaction with BSA studies are based on monitoring the BSA luminescence in the range of 300–450 nm by adding increasing concentrations of Au(III) complexes (Figure 3a and Figure S6). The obtained fluorescence data were analyzed using the Stern–Volmer equation, which allows the Stern-Volmer quenching constant KSV and the bimolecular quenching constant kq to be calculated (Figure 3b). In most of the cases studied, the Stern–Volmer representation fit a straight line, indicative of a single quenching mode, either static or dynamic. In case of drug development, static quenching is usually required to probe an interaction between the drug and the protein. By studying the bimolecular quenching constant (kq), the operated quenching can be determined since this parameter represents the efficiency of quenching or how accessible the fluorophores are to the quencher. Dynamic quenching depends on diffusion processes, so a higher kq value than the diffusion-controlled rate constant of the biomolecule in water, 10^10 M^−1s^−1, may indicate a contribution of static quenching. […] Additionally, the modified Stern–Volmer equation permits the values of the binding constant (Kb) for each gold complex and the number of binding sites (n) to be calculated. According to the Kb values observed in Table 3, there was a moderated interaction force between complex-BSA. These values were higher than other reported for gold(I) complexes, but similar to the documented interactions for potential drugs based on ruthenium or nickel.

Another assay relates to Candida albicans (Ca). Description: Antifungal MIC assay (CO-ADD). The class given is cell-based. As to conditions: 36 h, 35 °C, inhibition ≥ 80%. The procedure:
The antimicrobial assays were performed according to the protocols of the Community for Open Antimicrobial Drug Discovery (CO-ADD). […] All the sample preparation was done using liquid-handling robots.
The antifungal activity of all synthesized complexes was evaluated in two different fungi, Candida albicans (Ca) and Cryptococcus neoformans (Cn). Fungi strains were cultured for 3 days on yeast extract–peptone–dextrose (YPD) agar at 30 °C. A yeast suspension of 1 × 10^6 to 5 × 10^6 CFU/mL (as determined by OD530) was prepared from five colonies. The suspension was subsequently diluted and added to each well of the complex-containing plates, giving a final cell density of fungus suspension of 2.5 × 10^3 CFU/mL and a total volume of 50 μL. All plates were covered and incubated at 35 °C for 36 h without shaking. […] The absorbance was measured using a Biotek Multiflo Synergy HTX plate reader (Winooski, VT, USA). In both cases, the percentage of growth inhibition was calculated for each well, using the negative control (media only) and positive control (fungi without inhibitors) on the same plate. […] Due to a higher variance in growth and inhibition, a lower threshold was applied to the data for C. neoformans.

By IC50 is commonly meant the point on the concentration scale where inhibition reaches its midpoint. Higher therefore signals lower potency.

Some results are limits rather than exact numbers.

On to `Cc1ccc(-c2ccccn2)[c]([Au+][S]C(=S)N(C)C)c1.F[P-](F)(F)(F)(F)F` [Complex C1, [Au(tpy)(dmdtc)] PF6], for which, in the assay on Caco-2/TC7 normal cells, the IC50 worked out at 23.03 ± 0.06 µM. In addition, at BSA, the “bimolecular quenching constant kq” value is 1.3e+12 M⁻¹ s⁻¹; the “Stern–Volmer quenching constant KSV” value is 13000 M⁻¹; the “number of binding sites n” value was 1.72; the “number of binding sites n, rounded (in brackets)” value (“number … (in brackets)” below) was determined as 2. For the same molecule, the “MIC Ca” value with Candida albicans (Ca) is reported as over 32 µg/mL.
The molecule `CN(C)C(=S)[S][Au+][c]1ccccc1-c1ccccn1.F[P-](F)(F)(F)(F)F` [Complex C2, [Au(ppy)(dmdtc)]PF6] yielded an IC50 in the assay on Caco-2/TC7 normal cells of 15.69 ± 0.06 µM. In addition, at BSA, the “bimolecular quenching constant kq” value amounted to 1.37e+12 M⁻¹ s⁻¹; the “Stern–Volmer quenching constant KSV” value turned out to be 13700 M⁻¹; the “number of binding sites n” value amounted to 1.42; the “number … (in brackets)” value is 1. In addition, the “MIC Ca” value with Candida albicans (Ca) amounted to 32 µg/mL.
`CCN(CC)C(=S)[S][Au+][c]1cc(C)ccc1-c1ccccn1.F[P-](F)(F)(F)(F)F` [Complex C3, [Au(tpy)(dedtc)]PF6] returned a half-inhibitory concentration (IC50) in the assay with Caco-2/TC7 normal cells of 12.95 ± 0.11 µM. Also, on BSA, the “bimolecular quenching constant kq” value is 1.9e+12 M⁻¹ s⁻¹; the “Stern–Volmer quenching constant KSV” value was determined as 19000 M⁻¹; the “number of binding sites n” value worked out at 0.95; the “number … (in brackets)” value was 1. For the same molecule, the “MIC Ca” value with Candida albicans (Ca) was over 32 µg/mL.
`Cc1ccc2[c](c1)[Au-]1([S]C(N(Cc3ccccc3)Cc3ccccc3)=[S+]1)[n+]1ccccc1-2.F[P-](F)(F)(F)(F)F` (stereo not drawn) [Complex C5, [Au(tpy)(dbdtc)]PF6] returned an IC50 in the assay with Caco-2/TC7 normal cells of over 100 µM. At BSA, the “bimolecular quenching constant kq” value is 4.43e+12 M⁻¹ s⁻¹; the “Stern–Volmer quenching constant KSV” value was found to be 44300 M⁻¹; the “number of binding sites n” value stood at 1.57; the “number … (in brackets)” value is 1–2. Besides, in the assay with Candida albicans (Ca), the “MIC Ca” value came out at 32 µg/mL.
As to `F[P-](F)(F)(F)(F)F.S=C([S][Au+][c]1ccccc1-c1ccccn1)N(Cc1ccccc1)Cc1ccccc1` [Complex C6, [Au(ppy)(dbdtc)]PF6], it took 24.7 ± 0.36 µM to reach half-maximal inhibition with Caco-2/TC7 normal cells (IC50). Further, on BSA, the “bimolecular quenching constant kq” value worked out at 6.44e+12 M⁻¹ s⁻¹; the “Stern–Volmer quenching constant KSV” value was determined as 64400 M⁻¹; the “number of binding sites n” value stood at 1.43; the “number … (in brackets)” value is reported as 1. Further, the “MIC Ca” value with Candida albicans (Ca) amounted to 4 µg/mL.
On to [Au(ppy)(dedtc)]PF6 [Complex C4], for which, in the assay on Caco-2/TC7 normal cells, the 50% inhibitory concentration (IC50) came out at 16.79 ± 0.13 µM. For the same molecule, at BSA, the “bimolecular quenching constant kq” value is 2.01e+12 M⁻¹ s⁻¹; the “Stern–Volmer quenching constant KSV” value worked out at 20100 M⁻¹; the “number of binding sites n” value is recorded as 1.18; the “number … (in brackets)” value came to 1. Moreover, in the assay on Candida albicans (Ca), the “MIC Ca” value is 32 µg/mL.
